The values that follow are results of earlier work, collected in patent publication US6663884B2, “Method of detoxifying the egg of puffer fish for creating healthy foodstuffs and the resulting product” (priority 2002, dated 2003).

As to `NC1=N[C@H](O)[C@H]2[C@H]3O[C@]4(O)O[C@@H]([C@@H](O)[C@@]2(N1)[C@@H]4O)[C@]3(O)CO` [tetrodotoxin], the solubility in water result is listed as “soluble in water”.
